Experimental data reported in patent US8741897B2, “Glucocorticoid mimetics, methods of making them, pharmaceutical compositions and uses thereof” (Boehringer Ingelheim Pharmaceuticals Inc., priority 2003, dated 2014).

System: glucocorticoid receptor function
Experiment: one or more of the above assays (GR binding and glucocorticoid receptor cell assays: aromatase, IL-6, TAT, MMTV-Luc, IL-8, ICAM-Luc)
Type: cell-based
Conditions: assay not specified per compound
Protocol: B. Glucocorticoid Receptor Cell Assays
1. Induction of Aromatase in Fibroblasts (Cell Assay for Transactivation)
Dexamethasone, a synthetic ligand to the glucocorticoid receptor (GR), induces expression of aromatase in human foreskin fibroblast cells. The activity of aromatase is measured by the conversion of testosterone to estradiol in culture media.
On the day of the experiment, the media in the wells is replaced with fresh media. Cells are treated with test compounds to final concentrations of 10^−5 M to 10^−8 M, and testosterone to a final concentration of 300 ng/mL. Each well has a total volume of 100 μL. Samples are made in duplicates. Control wells include: (a) wells that receive testosterone only, and (b) wells that receive testosterone plus 2 μM of dexamethasone to provide maximum induction of aromatase. Plates are incubated at 37° C. overnight (15 to 18 hours), and supernatants are harvested at the end of incubation. […] The amount of estradiol is inversely proportional to the ELISA signals in each well. The extent of aromatase induction by test compounds is expressed as a relative percentage to dexamethasone. EC50 values of test compounds are derived by non-linear curve fitting.
2. Inhibition of IL-6 Production in Fibroblasts (Cell Assay for Transrepression)
Human foreskin fibroblast cells produce IL-6 in response to stimulation by proinflammatory cytokine IL-1.
On the next day, media in the wells is replaced with fresh media. Cells are treated with IL-1 (rhIL-1α, R&D Systems Cat. No. 200-LA) to a final concentration of 1 ng/mL, and with test compounds to final concentrations of 10^−5 M to 10^−8 M, in a total volume of 200 μL per well. Samples are done in duplicates. […] Positive control wells receive IL-1 only and represent maximum (or 100%) amount of IL-6 production. Plates are incubated at 37° C. overnight (15 to 18 hours), and supernatants are harvested at the end of incubation. IL-6 levels in the supernatants are determined by the ELISA kits for IL-6 (MedSystems Diagnostics GmbH, Vienna, Austria, Cat. No. BMS213TEN) according to manufacture's instructions. The extent of inhibition of IL-6 by test compounds is expressed in percentage relative to positive controls. IC50 values of test compounds are derived by non-linear curve fitting.
Evaluation of agonist or antagonist activity of compounds binding to the glucocorticoid receptor may be determined by any of the assays.
3. Modulation of Tyrosine Aminotransferase (TAT) Induction in Rat Hepatoma Cells
Testing of compounds for agonist or antagonist activity in induction of tyrosine aminotransferase (TAT) in rat hepatoma cells.
H4-II-E-C3 cells were incubated overnight in 96 well plates (20,000 cells/100 μL/well) in MEM medium containing 10% heat inactivated FBS and 1% nonessential amino acids. On the next day, cells were stimulated with the indicated concentrations of dexamethasone or test compound (dissolved in DMSO, final DMSO concentration 0.2%) for 18 hours. Control cells were treated with 0.2% DMSO. After 18 hours, the cells were lysed in a buffer containing 0.1% Triton X-100 and the TAT activity was measured in a photometric assay using tyrosine and alpha-ketoglutarate as substrates.
For measuring antagonist activity, the hepatoma cells were pre-stimulated by addition of dexamethasone (concentration ranges from 3×10^−9 M to 3×10^−8 M) shortly before the test compound was applied to the cells.
4. Modulation of MMTV-Luc Induction in HeLa Cells
Testing of compounds for agonist or antagonist activity in stimulation of MMTV-(mouse mammary tumor virus) promoter in HeLa cells.
Cells were cultured overnight in DMEM medium without phenol red, supplemented with 3% CCS (charcoal treated calf serum) and then transferred to 96 well plates (15,000 cells/100 μL/well).

| SMILES | activity as agonists of the glucocorticoid receptor function in one or more of the above assays |
| --- | --- |
| Cc1ccc(F)cc1C(C)(C)CC(O)(Cc1[nH]c2cnccc2c1C)C(C)(C)C (stereo not drawn) [5-(5-Fluoro-2-methylphenyl)-2,2,5-trimethyl-3-(3-methyl-1H-pyrrolo[2,3-c]pyridin-2-ylmethyl)hexan-3-ol] | agonists |
| Cc1ccc(F)cc1C(C)(C)CC(O)(Cc1cc2cc(-c3ccccc3)ncc2[nH]1)C(C)(C)C (stereo not drawn) [5-(5-Fluoro-2-methylphenyl)-2,2,5-trimethyl-3-(5-phenyl-1H-pyrrolo[2,3-c]pyridin-2-ylmethyl)hexan-3-ol] | agonists |
| CC(C)(CC(O)(Cn1ccc2c1CCCC2=O)C(F)(F)F)c1cc(-c2cncnc2)cc2c1OCC2 (stereo not drawn) [1-[2-Hydroxy-4-methyl-4-(5-pyrimidin-5-yl-2,3-dihydrobenzofuran-7-yl)-2-trifluoromethylpentyl]-1,5,6,7-tetrahydroindol-4-one] | agonists |
| CC(C)(CC(O)(Cc1cc2cnccc2[nH]1)C1CC1)c1cc(Cl)cc2c1OCC2 (stereo not drawn) [4-(5-Chloro-2,3-dihydrobenzofuran-7-yl)-2-cyclopropyl-4-methyl-1-(1H-pyrrolo[3,2-c]pyridin-2-yl)pentan-2-ol] | agonists |
| Cc1ccc(F)cc1C(C)(C)CC(O)(Cn1ccc2c1CCCC2=O)C(F)(F)F (stereo not drawn) [1-[4-(5-Fluoro-2-methylphenyl)-2-hydroxy-4-methyl-2-trifluoromethylpentyl]-1,5,6,7-tetrahydroindol-4-one] | agonists |
| COc1ccc(-c2ccccc2)cc1C(C)(C)CC(O)(Cc1cc2ccncc2[nH]1)C(F)(F)F (stereo not drawn) [1,1,1-Trifluoro-4-(4-methoxybiphenyl-3-yl)-4-methyl-2-(1H-pyrrolo[2,3-c]pyridin-2-ylmethyl)pentan-2-ol] | potent agonists |
| CC(C)(CC(O)(Cc1cc2cc(-c3ccc(F)cc3)ncc2[nH]1)C(F)(F)F)c1cccc(F)c1 (stereo not drawn) [1,1,1-Trifluoro-4-(3-fluorophenyl)-2-[5-(4-fluorophenyl)-1H-pyrrolo[2,3-c]pyridin-2-ylmethyl]-4-methylpentan-2-ol] | potent agonists |
| CC(C)(CC(O)(Cc1cc2cnccc2[nH]1)C(F)F)c1cc(Cl)cc2c1OCC2 (stereo not drawn) [4-(5-Chloro-2,3-dihydrobenzofuran-7-yl)-1,1-difluoro-4-methyl-2-(1H-pyrrolo[3,2-c]pyridin-2-ylmethyl)pentan-2-ol] | agonists |
| COc1cc(F)ccc1C(C)(C)CC(O)(Cc1cc2cc(N(C)C)ncc2[nH]1)C(F)(F)F (stereo not drawn) [2-(5-Dimethylamino-1H-pyrrolo[2,3-c]pyridin-2-ylmethyl)-1,1,1-trifluoro-4-(4-fluoro-2-methoxyphenyl)-4-methylpentan-2-ol] | potent agonists |
| CC(C)Oc1cc2cc(CC(O)(CC(C)(C)c3cccc(F)c3)C(F)(F)F)[nH]c2cn1 (stereo not drawn) [1,1,1-Trifluoro-4-(3-fluorophenyl)-2-(5-isopropoxy-1H-pyrrolo[2,3-c]pyridin-2-ylmethyl)-4-methylpentan-2-ol] | potent agonists |
| CCOc1cc2cc(CC(O)(CC(C)(C)c3cc(F)ccc3C)C(F)(F)F)[nH]c2cn1 (stereo not drawn) [2-(5-Ethoxy-1H-pyrrolo[2,3-c]pyridin-2-ylmethyl)-1,1,1-trifluoro-4-(5-fluoro-2-methylphenyl)-4-methylpentan-2-ol] | potent agonists |
| CC(C)(CC(O)(Cn1ccc2c1CCCC2=O)C(F)(F)F)c1cc(F)ccc1O (stereo not drawn) | agonists |
| CC(C)(CC(O)(Cc1cc2ccncc2[nH]1)C(F)(F)F)c1cc(Br)ccc1O (stereo not drawn) [4-Bromo-2-[4,4,4-trifluoro-3-hydroxy-1,1-dimethyl-3-(1H-pyrrolo[2,3-c]pyridin-2-ylmethyl)butyl]phenol] | potent agonists |
| Cc1ccc(F)cc1C(C)(C)CC(O)(Cc1cc2c(C)nccc2[nH]1)C(F)(F)F (stereo not drawn) [1,1,1-Trifluoro-4-(5-fluoro-2-methylphenyl)-4-methyl-2-(4-methyl-1H-pyrrolo[3,2-c]pyridin-2-ylmethyl)pentan-2-ol] | potent agonists |
| CC(C)(CC(O)(Cc1cc2cnccc2[nH]1)C(F)(F)F)c1cccc(-c2cccnc2)c1 (stereo not drawn) [1,1,1-Trifluoro-4-methyl-4-(3-pyridin-3-ylphenyl)-2-(1H-pyrrolo[3,2-c]pyridin-2-ylmethyl)pentan-2-ol] | potent agonists |
| CC(C)(CC(O)(Cc1cc2nc(C(N)=O)ccc2[nH]1)C(F)(F)F)c1cc(Cl)cc2c1OCC2 (stereo not drawn) [2-[4-(5-Chloro-2,3-dihydrobenzofuran-7-yl)-2-hydroxy-4-methyl-2-trifluoromethylpentyl]-1H-pyrrolo[3,2-b]pyridine-5-carboxylic acid amide] | potent agonists |
| CC(C)(CC(O)(Cc1cc2cc(N3CCCCC3)ncc2[nH]1)C(F)(F)F)c1cccc(F)c1 (stereo not drawn) [1,1,1-Trifluoro-4-(3-fluorophenyl)-4-methyl-2-(5-piperidin-1-yl-1H-pyrrolo[2,3-c]pyridin-2-ylmethyl)pentan-2-ol] | potent agonists |
| CC(C)(CC(O)(Cc1cc2nc(-c3ccccc3)ncc2[nH]1)C(F)(F)F)c1cc(Cl)cc2c1OCC2 (stereo not drawn) [4-(5-Chloro-2,3-dihydrobenzofuran-7-yl)-1,1,1-trifluoro-4-methyl-2-(2-phenyl-5H-pyrrolo[3,2-d]pyrimidin-6-ylmethyl)pentan-2-ol] | potent agonists |
| CC(C)(CC(O)(Cc1cc2nc(Cl)ncc2[nH]1)C(F)(F)F)c1cc(Cl)cc2c1OCC2 (stereo not drawn) [4-(5-Chloro-2,3-dihydrobenzofuran-7-yl)-2-(2-chloro-5H-pyrrolo[3,2-d]pyrimidin-6-ylmethyl)-1,1,1-trifluoro-4-methylpentan-2-ol] | potent agonists |
| CC(C)(CC(O)(Cc1cc2cc(-c3ccccn3)ccc2[nH]1)C(F)(F)F)c1cc(Cl)cc2c1OCC2 (stereo not drawn) [4-(5-Chloro-2,3-dihydrobenzofuran-7-yl)-1,1,1-trifluoro-4-methyl-2-(5-pyridin-2-yl-1H-indol-2-ylmethyl)pentan-2-ol] | potent agonists |
| CC(C)(CC(O)(Cc1cc2cc(-c3ccccc3)nnc2[nH]1)C(F)(F)F)c1ccccc1 (stereo not drawn) [1,1,1-Trifluoro-4-methyl-4-phenyl-2-(3-phenyl-7H-pyrrolo[2,3-c]pyridazin-6-ylmethyl)pentan-2-ol] | potent agonists |
| CC(C)(CC(O)(Cc1cc2cc(N3CCOCC3)ncc2[nH]1)C(F)(F)F)c1cccc(F)c1 (stereo not drawn) [1,1,1-Trifluoro-4-(3-fluorophenyl)-4-methyl-2-(5-morpholin-4-yl-1H-pyrrolo[2,3-c]pyridin-2-ylmethyl)pentan-2-ol] | potent agonists |
| CC(C)(CC(O)(Cc1cc2ccncc2[nH]1)C1CC1)c1cc(Cl)cc2c1OCC2 (stereo not drawn) [4-(5-Chloro-2,3-dihydrobenzofuran-7-yl)-2-cyclopropyl-4-methyl-1-(1H-pyrrolo[2,3-c]pyridin-2-yl)pentan-2-ol] | agonists |
| CC(C)(CC(O)(Cc1cc2cc(-c3ccccc3)nnc2[nH]1)C(F)(F)F)c1cc(Cl)cc2c1OCC2 (stereo not drawn) [4-(5-Chloro-2,3-dihydrobenzofuran-7-yl)-1,1,1-trifluoro-4-methyl-2-(3-phenyl-7H-pyrrolo[2,3-c]pyridazin-6-ylmethyl)pentan-2-ol] | potent agonists |
